Tested on: normal (non-tumor) brain cells
Assay: Normal brain cell viability (MTT on brain sections)
Format: in vivo
Details: brain sections of untreated mice treated with 1 mM in PBS for one hour; positive control for cell death (FIG. 10)
Experimental: In each experiment, three mice were injected with 200 μl of PBS containing 3% DMSO, and three mice were injected with 200 μl of 667 μM curcumin (as described earlier) through the tail vein on three consecutive days by the method described above. On the fourth day, the mice were perfused with PBS through the heart, and the brains sectioned into 400-μm sections. Similar brain sections were also made from untreated mice which were then treated with 1 mM H2O2 in PBS for one hour, followed by incubation in H2O2-free DTM for three hours. These samples were used as a positive control for cell death.
The sections from each mouse were placed in 400 μl PBS in one well of a 48-well plate (i.e. three wells for three mice) and then treated with 200 μl of MTT (5 mg/ml) per well with gentle mixing at 37° C. for about 2 hours. Subsequently, 800 μl of the lysis buffer was added to each well, and the plate was sealed and incubated overnight at 37° C. with gentle mixing. Three 100-μl portions of the tissue solution obtained were next transferred to three respective wells of a 96-well plate (i.e. three wells per mouse and nine wells for three mice in one group) and absorbance at 570 nm was measured using a 96-well multi scanner auto-reader. Results obtained were normalized to protein levels and then expressed as percent of carrier-treated samples.

## OO [H2O2, reference compound]
  cell viability in brain slices (MTT activity): dramatic decrease

From US20100197584A1, “USE OF CURCUMIN TO BLOCK BRAIN TUMOR FORMATION IN MICE” (Research Foundations of the City University of- New York, priority 2007, published 2010)
